{
  "source": "patent US20230158071A1",
  "about": "“TUMOR COMBINED IMMUNOTHERAPY” (CRAGE medical Co., Limited, priority 2018, published 2023)",
  "key": {"[1]": {"system": "cytokines Granzyme B, IFN-γ, and IL-2", "test": "ELISA of cytokines in supernatant of co-cultured 4T1-EGFRvIII cells and CAR-T cells", "type": "cell-based, mouse", "conditions": "4T1-EGFRvIII co-culture with CAR-T cells, olaparib groups", "experimental": "Olaparib pretreatment group: different concentrations of olaparib (1 μM, 5 μM) are added to the medium for culturing E0771-EGFRVIII or 4T1-EGFRvIII tumor cells respectively, culturing at 37° C. for 24 h, and then the cells are treated with trypsin and resuspended in fresh medium. The untreated mouse T cells and 806-mCD28z-CAR T cells in Example 1 are respectively taken to incubate with E0771-EGFRvIII or 4T1-EGFRVIII cells pretreated with different concentrations of olaparib at a ratio of 1:3, 1:1, and 3:1; 16 hours later, the secretion of LDH in the supernatant is detected by Cytox 96 Non-Radioactive Cytotoxicity Assay, then calculating the killing toxicity of 806-mCD28z CAR T cells to tumor cells pretreated with different concentrations of olaparib. For specific detection steps and calculation methods, see the instructions of Promaga. Cytox 96 Non-Radioactive Cytotoxicity Assay (Promaga, REF: G1782); at the same time, the secretions of cytokines Granzyme B, IFN-γ, and IL-2 in the supernatant are detected by ELISA kit (Lianke Biotech Co. Ltd. CAT: 18^.22), for specific experimental procedures, referring to instructions of MouseGranzyme B, IFN-γ, IL-2 ELISA kit from Lianke Biotech Co, Ltd. […]"}, "[2]": {"system": "4T1-EGFRvIII orthotopic breast cancer xenografts", "test": "Mouse 4T1-EGFRvIII orthotopic breast cancer xenografts, olaparib and CAR-T", "type": "in vivo, BALB/c mice", "conditions": "olaparib 50 mg/kg i.p. with CAR-T cells", "experimental": "(1) Establishment of mouse orthotopic breast cancer model and respective treatment in groups:\n4T1-EGFRvIII cells in the logarithmic growth phase and growing well are collected, inoculating 5×10^5 target cells at right side position of the third pair of accessory breasts of BABL/C mice (mice with normal immune system), and the inoculating day is recorded as the first day (i.e., Day 1).\nOn the 10th day after tumor inoculation (i.e. Day 10), mouse T cells are taken and 806-mCD28z-CAR-T cell line is constructed as described in step 1 of this example.\nOn the 14th day after tumor inoculation (i.e., Day 14), the volume of the tumor reaches about 150 mm^3, and the mice are divided in groups: […]\n(2) Detection of tumor volume. The tumor volume changes of mice are observed and measured continuously, and recorded three times a week. […]\n(4) Detection of CAR-T copy number in tumor tissues. Tumor tissues of each group of mice are ground to extract DNA, and the sequence of retroviral vector fragment is detected by Taqman probe method to determine the DNA copy number of 806-mCD28z-CAR. […]\n(6) Detection of MDSC cells in tumor tissue. The tumor tissues of mice in each group are ground, and after enzyme digestion, the changes in the proportion of MDSC cells are analyzed by flow cytometry. […]"}},
  "data": [
    {"smiles": "O=C(c1cc(Cc2n[nH]c(=O)c3ccccc23)ccc1F)N1CCN(C(=O)C2CC2)CC1", "note": "[olaparib]", "values": [
      {"measurement": "level of cytokine in the supernatant", "setting": "[1]", "result": "not increased"},
      {"measurement": "toxicity of combining olaparib with CAR-T cell therapy (from body weights)", "setting": "[2]", "result": "do not cause significant toxicity"}
    ]}
  ]
}
